Measurements as given in publication PMC5860131, “Identification of natural products as novel ligands for the human 5-HT2C receptor” (Biophysics Reports, 2018).

Tests used:
5-HT2A receptor = target: T1, 5-HT2A receptor (Homo sapiens, UniProt P28223); test: Ca2+ mobilization assay (Fluo-4, FLIPR), HEK 293T cells stably transfected with 5-HT2A; assay type: cell-based
T1 construct: expressed in transfected cells; host or cells: HEK 293T, stably transfected
From the text: The 5-HT2C receptor mainly couples to Gαq proteins. The activated 5-HT2C receptor transmits the signals from the extracellular to the intercellular side using DAG/IP3 (diacyl glycerol/inositol 1,4,5-trisphosphate) as its second massagers (Hannon and Hoyer [2008]). IP3 stimulates the endoplasmic reticulum to release calcium ions into the cytoplasm, which causes the increase of calcium concentration in cytosol. Therefore, calcium mobilization assay is commonly applied to understand how unknown small molecule ligands of 5-HT2C receptor modulate cellular signal transductions. In this case, Fluo-4 Direct dye was used as a fluorescence indicator to detect calcium flux in G protein-coupled receptor expressed cells. The fold of maximum response over average of basal reading is plotted against compound concentration to determine the potency of the compounds (Fig. 3). […]. […] After the dye loaded, cells were placed in a FLIPR^TETRA fluorescence imaging plate reader (Molecular Devices); drug dilutions, prepared at 3× final concentration in FLIPR buffer and aliquotted into 384-well plates, were also added to the FLIPR^TETRA. The fluidics module and plate reader of the FLIPR^TETRA were programmed to read baseline fluorescence for 10 s (1 read/s), then to add 10 μl of drug/well and to read for 6 min (1 read/s). […]

[1] = target: T2, 5-HT2C receptor T139^3.37A (Homo sapiens, UniProt P28335, DEL255-298/G251D/H250E/H252N/INS299[…]/L248D/M247A/M300L/T139A/T253W); test: Affinity MS assay, 5-HT2C mutant T139A; assay type: binding; conditions: mutant T139^3.37A, n = 2
T2 construct: the N- and C-terminals were truncated by 39 and 65 residues, respectively; PreScission protease site + 10× His (C); made in house
T2 sequence (P28335 with tags, fused parts or gaps with the stated changes): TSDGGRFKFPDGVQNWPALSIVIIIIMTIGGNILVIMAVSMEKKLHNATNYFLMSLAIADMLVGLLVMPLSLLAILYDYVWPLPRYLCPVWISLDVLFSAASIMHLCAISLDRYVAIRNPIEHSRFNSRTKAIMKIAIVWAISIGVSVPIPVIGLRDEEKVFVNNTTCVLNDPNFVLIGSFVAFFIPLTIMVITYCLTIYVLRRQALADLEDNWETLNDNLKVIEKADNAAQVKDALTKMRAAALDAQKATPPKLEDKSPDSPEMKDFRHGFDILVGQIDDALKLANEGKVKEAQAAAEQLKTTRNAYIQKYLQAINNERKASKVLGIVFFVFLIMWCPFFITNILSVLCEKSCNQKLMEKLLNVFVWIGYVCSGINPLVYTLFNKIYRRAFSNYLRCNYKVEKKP
From the text: (§1) Based on the binding poses predicted by molecular docking, single-point mutations were designed to test their impact on ligand binding. Mutations of several residues include the highly conserved Asp134^3.32, which is known to cause 5-HT1B or 5-HT2B receptors to abolish the monoamine ligand binding as reported in the literature (Wang et al. [2013]). In this study, residues forming hydrophobic interactions with the substitution groups on the aporphine scaffold of (–)-crebanine (1) were selected for mutation as well and they are Thr139^3.37, Gly218^5.42, Ala222^5.46, and Leu209^ECL2. Effects of those mutations were tested with the CPM assay and the affinity MS assay (Table 2). In the affinity MS experiment, relative ligand-binding capacity (represented by binding %) to different mutants and the wild-type receptor was compared. Among the six mutations tested, five of them reduced the binding of (–)-crebanine (1) by more than 40% relative to binding to the wild-type receptor, displaying the importance of hydrophobic interactions. […]
(§2) Four experimental replicates were prepared for each pair of the test ligand and the negative control. […] S/C ratios refer to the ratio of MS response of a specific ligand detected in the 5-HT2C incubation sample versus the control. […]

[2] = target: T3, 5-HT2C receptor G218^5.42S (Homo sapiens, UniProt P28335, DEL255-298/G218S/G251D/H250E/H252N/INS299[…]/L248D/M247A/M300L/T253W); test: Affinity MS assay, 5-HT2C mutant G218S; assay type: binding
T3 construct: the N- and C-terminals were truncated by 39 and 65 residues, respectively; PreScission protease site + 10× His (C); made in house
T3 sequence (P28335 with tags, fused parts or gaps with the stated changes): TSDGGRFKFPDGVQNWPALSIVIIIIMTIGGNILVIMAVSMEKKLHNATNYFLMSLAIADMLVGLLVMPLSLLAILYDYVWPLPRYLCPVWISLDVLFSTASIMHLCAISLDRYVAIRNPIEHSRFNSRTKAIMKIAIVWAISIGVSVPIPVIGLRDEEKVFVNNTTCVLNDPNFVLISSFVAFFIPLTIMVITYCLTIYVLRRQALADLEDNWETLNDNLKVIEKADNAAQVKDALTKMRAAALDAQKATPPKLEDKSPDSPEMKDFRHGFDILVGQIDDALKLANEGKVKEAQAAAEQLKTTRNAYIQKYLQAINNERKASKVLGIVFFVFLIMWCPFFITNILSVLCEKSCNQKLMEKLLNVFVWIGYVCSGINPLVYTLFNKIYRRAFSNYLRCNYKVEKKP
From the text: as §1, §2

T1 sequence (P28223 whole entry): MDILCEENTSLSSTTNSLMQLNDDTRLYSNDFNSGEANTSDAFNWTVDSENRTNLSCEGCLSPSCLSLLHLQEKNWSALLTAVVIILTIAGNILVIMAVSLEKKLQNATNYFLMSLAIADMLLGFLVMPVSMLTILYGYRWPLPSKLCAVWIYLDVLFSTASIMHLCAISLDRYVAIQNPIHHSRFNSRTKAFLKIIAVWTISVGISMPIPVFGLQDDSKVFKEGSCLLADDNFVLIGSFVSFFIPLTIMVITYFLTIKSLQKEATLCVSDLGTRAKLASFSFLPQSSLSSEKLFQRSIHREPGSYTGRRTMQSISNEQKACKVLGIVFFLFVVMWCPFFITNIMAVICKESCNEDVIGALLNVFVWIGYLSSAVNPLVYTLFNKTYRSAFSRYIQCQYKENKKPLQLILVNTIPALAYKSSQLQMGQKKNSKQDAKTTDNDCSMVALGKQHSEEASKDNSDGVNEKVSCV

SMILES: COc1ccc2c(c1OC)C[C@@H]1c3c(cc4c(c3-2)OCO4)CCN1C [Compound 1, (–)-crebanine]
- IC50 (5-HT2A receptor): 564 nM
- (–)-Crebanine/MS relative ligand binding [1]: 14.64%
- (–)-Crebanine/MS relative ligand binding ([2]; mutant G218^5.42S, n = 2): 6.04%
- ligand-binding capacity reduction versus wild-type ([2]; mutation Gly218^5.42Ser): over 60%
